Experiments:
Test in all cases: relative viability (nuclei count vs DMSO), 5 days (fraction); higher = more cells survive
[1] = compound: OCc1c[nH]c2ccccc12 [Indole-3-carbinol] + Nc1ncn([C@H]2C[C@H](O)[C@@H](CO)O2)c(=O)n1 [Decitabine] (partner 2 µM)
In short: (§1)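 Lung cancer cell lines, seeded in 1536-well plates, were treated the following day by pin tool with a single drug or with five library-drug doses (not always all listed) in √10 steps on top of a fixed anchor-drug dose. Cells were fixed and nuclei stained in one step after 5 days, and nuclei were counted. Relative viability is the nuclei count for treated wells divided by that for vehicle wells, reported as medians of duplicate plates.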

[2] = compound: OCc1c[nH]c2ccccc12 [Indole-3-carbinol] + CCNC(=O)c1noc(-c2cc(C(C)C)c(O)cc2O)c1-c1ccc(CN2CCOCC2)cc1 [Luminespib] (partner 0.01 µM)
In short: as §1

[3] = compound: OCc1c[nH]c2ccccc12 [Indole-3-carbinol] + COc1cc2c(Oc3ccc(NC(=O)C4(C(=O)Nc5ccc(F)cc5)CC4)cc3F)ccnc2cc1OCCCN1CCOCC1 [Foretinib] (partner 0.25 µM)
In short: as §1

[4] = compound: OCc1c[nH]c2ccccc12 [Indole-3-carbinol] + Cc1nc(NC(=O)N2CCC[C@H]2C(N)=O)sc1-c1ccnc(C(C)(C)C(F)(F)F)c1 [Alpelisib] (partner 2 µM)
In short: as §1

[5] = compound: OCc1c[nH]c2ccccc12 [Indole-3-carbinol] + COc1cccc2cc(-c3nc([C@H]4CC[C@H](C(=O)O)CC4)n4ncnc(N)c34)[nH]c12 [OSI-027] (partner 0.5 µM)
In short: as §1

Cell Line	relative viability ([1]; first compound 0.253 µM)	relative viability ([1]; first compound 0.8 µM)	relative viability ([1]; first compound 2.53 µM)	relative viability ([1]; first compound 8 µM)	relative viability ([2]; first compound 0.253 µM)	relative viability ([2]; first compound 0.8 µM)	relative viability ([2]; first compound 2.53 µM)	relative viability ([2]; first compound 8 µM)	relative viability ([3]; first compound 0.253 µM)	relative viability ([3]; first compound 0.8 µM)	relative viability ([3]; first compound 2.53 µM)	relative viability ([3]; first compound 8 µM)	relative viability ([4]; first compound 0.253 µM)	relative viability ([4]; first compound 0.8 µM)	relative viability ([4]; first compound 2.53 µM)	relative viability ([4]; first compound 8 µM)	relative viability ([5]; first compound 0.253 µM)	relative viability ([5]; first compound 0.8 µM)	relative viability ([5]; first compound 2.53 µM)	relative viability ([5]; first compound 8 µM)
HCC-15	0.66	0.682	0.64	0.664	0.529	0.247	0.266	0.225	1.04	1.14	1.07	1.01	0.824	0.986	0.987	0.848	0.681	0.79	0.676	0.701
NCI-H2126	0.6	0.601	0.547	0.54	0.887	0.876	0.992	0.851	1.05	1.23	1.25	1.06	0.751	0.808	0.714	0.764	0.706	0.745	0.65	0.791
NCI-H2085	0.5	0.63	0.483	0.506	0.456	0.429	0.395	0.498	0.781	1.11	0.879	0.865	0.905	1.06	1.05	0.854	0.76	0.884	0.747	0.684
BEN	0.689	0.784	0.726	0.749	0.346	0.188	0.377	0.379	0.566	0.501	0.651	0.624	0.948	0.808	1.02	0.929	0.275	0.271	0.33	0.331
NCI-H650	0.354	0.323	0.344	0.338	0.785	0.882	0.844	0.647	1.05	1.02	1.04	0.953	1.06	1.18	1.05	0.953	0.559	0.512	0.482	0.482
LCLC-103H	0.789	0.675	0.668	0.623	0.873	0.939	0.901	0.811	0.691	0.783	0.669	0.639	0.869	0.882	0.923	0.899	0.452	0.513	0.428	0.431
PC-14	0.201	0.196	0.276	0.23	0.218	0.143	0.24	0.191	0.961	0.842	0.987	0.913	0.995	0.955	0.888	0.93	0.756	0.828	0.873	0.706
COR-L23	0.428	0.465	0.414	0.385	0.74	0.754	0.712	0.512	0.992	0.977	1.1	0.951	0.818	1.06	0.673	0.601	0.66	0.718	0.854	0.628
NCI-H1915	0.255	0.246	0.275	0.27	0.695	0.794	0.741	0.662	1.03	1.08	1.06	1.01	1.05	1.05	1.07	1.03	0.571	0.611	0.623	0.563

Source: the supplement of paper PMC10307832
